The text below walks through data of patent publication US10278942B2 (PELOTON THERAPEUTICS, INC., priority 2015, dated 2019).

Structures are written as SMILES.

The target in one experiment is T1, HIF-2α HIS TAG-PASB Domain (Homo sapiens, UniProt Q99814).
T1 construct: 100 nM HIF-2α HIS TAG-PASB Domain
T1 sequence (Q99814 240-350 limits assumed): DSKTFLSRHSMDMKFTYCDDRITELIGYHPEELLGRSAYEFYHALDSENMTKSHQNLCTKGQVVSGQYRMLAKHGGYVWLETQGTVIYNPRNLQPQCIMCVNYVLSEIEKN
Put plainly: HIF-2α Scintillation Proximity Assay (SPA). Type of experiment: binding. The following applies: Scintillation Proximity Assay IC50 (nM). The method, then:
The total assay volume was about 100 μL in the following configuration: 2 μL compound in 100% DMSO, 88 μL buffer with protein and probe and 10 μL of SPA beads. […] The percent inhibition was determined and IC50 values were calculated using the Dotmatics system based on the following equation: % inhibition=[(high control−sample)/(high control−low control)]×100.
On the technique in general: Scintillation proximity formats need no separation of bound from free tracer.
`N#Cc1c(Oc2cc(F)cc(Cl)c2)ccc2c1C(O)C(F)(F)S2(=O)=O` (centres unmarked) [Compound 356] showed an IC50 of less than 50 nM.

Compound `CC1(C)C(O)c2c(ccc(Oc3cc(F)cc(Cl)c3)c2Br)S1(=O)=O` (centres unmarked) [Compound 406] gave an IC50 greater than 1000 nM.

`COC(=O)c1cc(S(=O)(=O)C(F)(F)F)ccc1Oc1cc(F)cc(Cl)c1` [Compound 121] yielded an IC50 greater than 1000 nM.

In the case of `NC(=O)c1cc(S(=O)(=O)C(F)(F)F)ccc1Oc1cc(F)cc(Cl)c1` [Compound 125], the IC50 was greater than 1000 nM.

The compound `Cc1c(Oc2cc(F)cc(Cl)c2)ccc2c1C(O)C(F)(F)S2(=O)=O` (centres unmarked) [Compound 359] gave an IC50 of less than 50 nM.

In the case of `CS(=O)(=O)c1ccc(Oc2cc(F)cc(C#N)c2)c2c1C(O)C(F)(F)CC2` (centres unmarked) [Compound 181], the IC50 was greater than 1000 nM.

Staying with this experiment, now noted: read-out: Scintillation Proximity Assay IC50.
Regarding `O=S(=O)(c1ccc(Oc2cc(F)cc(Cl)c2)c(CCO)c1)C(F)(F)F` [Compound 127], the IC50 is greater than 1000 nM.

Consider `CC1(C)CC[C@H](O)[C@@H](c2ccc(S(=O)(=O)C(F)(F)F)c3c2CC(F)(F)[C@H]3O)C1` [Compound 544], for which the IC50 is greater than 1000 nM.

`Fc1cc(F)cc(Oc2ncc(Br)c3c2CCC3)c1` [Compound 469, 4-bromo-1-(3,5-difluorophenoxy)-6,7-dihydro-5H-cyclopenta[c]pyridine]: the IC50 was greater than 1000 nM.

Regarding `CS(=N)(=O)c1ccc(Oc2cc(F)cc(Cl)c2)c(C#N)c1Cl` (centres unmarked) [Compound 180], the IC50 is greater than 1000 nM.

With `O=S(=O)(c1ccc(Cn2nccn2)c2c1[C@H](O)C(F)(F)C2)C(F)(F)F` [Compound 535], the IC50 is greater than 1000 nM.

On to `N#Cc1cc(F)cc(Oc2ccc(Br)c3c2C(F)(F)C(F)(F)C3)c1` [Compound 248], for which the IC50 was greater than 1000 nM.

As for `CC(C)(C)OC(=O)NCc1c(S(=O)(=O)C(F)F)ccc(Oc2cc(F)cc(Cl)c2)c1Br` [Compound 83], the half-inhibitory concentration (IC50) was greater than 1000 nM.

For the compound `CC(=O)Nc1ccc(S(=O)(=O)C(F)(F)F)c2c1CCC2O` (centres unmarked) [Compound 518], the IC50 was greater than 1000 nM.

As for `CS(=O)(=O)c1ccc(Nc2cncc(Cl)c2)c2c1C(O)CC2` (centres unmarked) [Compound 499], the IC50 is greater than 1000 nM.

Take `CS(=O)(=O)c1ccc(Nc2cc(F)cc(C#N)c2)c2c1C(O)CC2` (centres unmarked) [Compound 498]: the IC50 was greater than 1000 nM.

On to `O=S(=O)(c1ccc(O[C@@H]2CCCc3cn[nH]c32)c2c1[C@H](O)C(F)(F)C2)C(F)(F)F` [Compound 729], for which the IC50 was greater than 1000 nM.

Take `O=S(=O)(c1ccc(OCC2CC2)c2c1C(O)CC2)C(F)(F)F` (centres unmarked) [Compound 597]: the IC50 is greater than 1000 nM.

Regarding `O=S(=O)(c1ccc(Nc2ccc(F)c(Cl)c2)c2c1C(O)CC2)C(F)(F)F` (centres unmarked) [Compound 504], the IC50 was greater than 1000 nM.

Consider `CCOc1ccc(S(=O)(=O)C(F)(F)F)c2c1CCC2O` (centres unmarked) [Compound 589], for which the IC50 was greater than 1000 nM.

For `CS(=O)(=O)c1ccc(C(F)(F)CO)c2c1C(O)C(F)(F)C2` (centres unmarked) [Compound 555], the IC50 was greater than 1000 nM.

Take `CC1(C)C=C(c2ccc(S(=O)(=O)C(F)(F)F)c3c2CC(F)(F)[C@H]3O)C(=O)CC1` [Compound 541]: the IC50 was greater than 1000 nM.

For `N#CN=S(=O)(CF)c1ccc(Oc2cc(F)cc(C#N)c2)c2c1[C@H](O)CC2` (some centres unmarked) [Compound 282], the IC50 is greater than 1000 nM.

For `COc1cncc(Oc2ccc3c(c2Br)[C@@H](O)C(F)(F)S3(=O)=O)c1` [Compound 429], the IC50 was greater than 1000 nM.

For the compound `O=S(=O)(c1ccc(OC2CCC(O)CC2)c2c1C(O)CC2)C(F)(F)F` (centres unmarked) [Compound 615], the IC50 was greater than 1000 nM.

Turning to `OC1c2c(F)ccc(OCC(F)F)c2CC1(F)F` (centres unmarked) [Compound 652], the 50% inhibitory concentration (IC50) was greater than 1000 nM.

Regarding `O=S(=O)(c1ccc(-c2cn[nH]c2)c2c1[C@H](O)C(F)(F)C2)C(F)(F)F` [Compound 560], the IC50 is greater than 1000 nM.

For `CC(C)(C)OC(=O)N1CC(Oc2ccc(S(=O)(=O)C(F)(F)F)c3c2CC(F)(F)[C@H]3O)C1` [Compound 791], the IC50 is greater than 1000 nM.

With `N#Cc1c(Oc2cc(F)cc(Cl)c2)ccc2c1C(O)CS2(=O)=O` (centres unmarked) [Compound 353], the IC50 was 50 to 249 nM.

For the compound `CNCc1c(S(=O)(=O)C(F)(F)F)ccc(Oc2cc(F)cc(Cl)c2)c1Cl` [Compound 113], the IC50 is greater than 1000 nM.

As for `O=C1c2c(C(F)(F)F)ccc(OCC(F)F)c2CC1F` (centres unmarked) [Compound 694], the IC50 is greater than 1000 nM.

Consider `CS(=O)(=O)c1ccc(O[C@H]2CC[C@@H](C#N)CC2)c2c1[C@H](O)C(F)(F)[C@@H]2F` [Compound 758], for which the IC50 was greater than 1000 nM.

For `CS(=O)(=NC#N)c1ccc(Oc2cncc(C#N)c2)c2c1[C@H](O)C(F)(F)[C@@H]2F` (some centres unmarked) [Compound 319], the IC50 is less than 50 nM.

With `N#CN=S(=O)(CF)c1ccc(Oc2cc(F)cc(C#N)c2)c2c1[C@H](O)C(F)(F)C2` (some centres unmarked) [Compound 286], the IC50 is less than 50 nM.

On to `CS(=O)(=O)c1ccc(Oc2cncc(C#N)c2)c2c1[C@H](O)C(F)(F)[C@H]2F` [Compound 343], for which the IC50 is greater than 1000 nM.

Take `N#Cc1ccc(Oc2cc(F)cc(F)c2)c2c1[C@H](O)CC2` [Compound 66]: the IC50 was greater than 1000 nM.

Turning to `O/N=C1\CCc2c(OCC(F)F)ccc(C(F)(F)F)c21` [Compound 698], the IC50 is greater than 1000 nM.

On to `O=S(=O)(c1ccc(CO)c2c1[C@H](O)C(F)(F)C2)C(F)(F)F` [Compound 537], for which the IC50 is greater than 1000 nM.

On to `CC(C)(C)OC(=O)N[C@H]1C[C@@H](O)c2c(S(=O)(=O)C(F)(F)F)ccc(Oc3cc(F)cc(C#N)c3)c21` [Compound 278], for which the IC50 is greater than 1000 nM.

Consider `CS(=O)(=NC#N)c1ccc(Oc2cc(F)cc(C#N)c2)c2c1C(O)CC2` (centres unmarked) [Compound 68], for which the IC50 is greater than 1000 nM.

In the case of `O=S(=O)(c1ccc(N2CCOCC2)c2c1[C@H](O)C(F)(F)C2)C(F)(F)F` [Compound 490, (S)-2,2-difluoro-4-morpholino-7-((trifluoromethyl)sulfonyl)-2,3-dihydro-1H-inden-1-ol], the IC50 was greater than 1000 nM.

With `O=S(=O)(c1ccc(CC(O)CO)c2c1C(O)C(F)(F)C2)C(F)(F)F` (centres unmarked) [Compound 521, 3-(2,2-difluoro-1-hydroxy-7-((trifluoromethyl)sulfonyl)-2,3-dihydro-1H-inden-4-yl)propane-1,2-diol], the IC50 was greater than 1000 nM.

Take `CO[C@H]1c2c(S(C)(=O)=O)ccc(Oc3cc(F)cc(C#N)c3)c2CC1(F)F` [Compound 210]: the IC50 is greater than 1000 nM.

On to `C=CCN=S(=O)(c1ccc(Oc2cc(F)cc(C#N)c2)c2c1[C@H](O)C(F)(F)C2)C(F)(F)F` (some centres unmarked) [Compound 307], for which the IC50 was 250 to 1000 nM.

In the case of `N#Cc1cc(F)cc(Oc2ccc3c(c2C(F)F)C(N)C(F)(F)S3(=O)=O)c1` (centres unmarked) [Compound 387], the IC50 lay in the range of 50 to 249 nM.

For the compound `O=C1c2c(C(F)(F)F)ccc(OCC(F)F)c2CC1(F)F` [Compound 695], the IC50 was greater than 1000 nM.

With `N=S1(=O)c2ccc(Oc3cc(F)cc(F)c3)c(C(F)F)c2C(O)C1(F)F` (centres unmarked) [Compound 399], the IC50 lay within 50 to 249 nM.

Regarding `O=S(=O)(c1ccc(Oc2cc(F)cc(CO)c2)c(Br)c1)C(F)(F)F` [Compound 177], the IC50 was greater than 1000 nM.

As for `COC(=O)c1c([S+]([O-])C(F)F)ccc(Oc2cc(F)cc(Cl)c2)c1Br` (centres unmarked) [Compound 82], the IC50 was greater than 1000 nM.

Take `Cc1cc(C#N)cc(Oc2ccc3c(c2C(F)F)C(=O)C(F)(F)S3(=O)=O)c1` [Compound 391]: the IC50 was greater than 1000 nM.

On to `O=S(=O)(c1ccc(Oc2cc(F)cc(Cl)c2)c(Br)c1CNCCO)C(F)(F)F` [Compound 108], for which the IC50 was greater than 1000 nM.

For the compound `CS(=O)(=O)c1ccc(Nc2ccc(F)cc2)c2c1C(O)CC2` (centres unmarked) [Compound 497], the IC50 is greater than 1000 nM.

Regarding `N=S(=O)(c1ccc(Oc2cc(F)cc(Cl)c2)c(Br)c1)C(F)(F)F` (centres unmarked) [Compound 71], the IC50 lay in the range of 250 to 1000 nM.

Take `OC1c2c(Br)ccc(OC(F)(F)F)c2CC1(F)F` (centres unmarked) [Compound 653]: the IC50 is greater than 1000 nM.

As for `N#Cc1c(I)ccc(Oc2cc(F)cc(Cl)c2)c1Br` [Compound 96], the IC50 is greater than 1000 nM.

Turning to `N#Cc1cc(F)cc(Oc2ccc3c(c2Br)[C@@H](O)CS3(=O)=O)c1` [Compound 415], the IC50 was greater than 1000 nM.

Take `CN(C)Cc1c(S(=O)(=O)C(F)F)ccc(Oc2cc(F)cc(Cl)c2)c1C#N` [Compound 36]: the IC50 was greater than 1000 nM.

On to `Cc1c(Oc2cc(F)cc(C#N)c2)ccc(S(=O)(=O)C(F)(F)F)c1C#CCO` [Compound 142], for which the IC50 is greater than 1000 nM.

On to `CS(=O)(=O)c1cc(F)c(Oc2cc(F)cc(C#N)c2)c2c1C(O)C(F)(F)C2` (centres unmarked) [Compound 219], for which the IC50 is greater than 1000 nM.

As to `O=S(=O)(c1ccc(Oc2cc(F)cc(Cl)c2)c(Cl)c1Cn1ccnc1)C(F)F` [Compound 45], the IC50 was greater than 1000 nM.

Take `O=S(=O)(CF)c1ccc(Oc2cccc3sccc23)c2c1C(O)CC2` (centres unmarked) [Compound 239]: the IC50 is greater than 1000 nM.

`CC(Oc1ccc(S(=O)(=O)C(F)(F)F)c2c1CC(F)(F)C2O)C(=O)O` (centres unmarked) [Compound 646]: the IC50 is greater than 1000 nM.

For the compound `O=S(=O)(c1ccc(NCc2ccco2)c2c1[C@H](O)C(F)(F)C2)C(F)F` [Compound 529], the IC50 was greater than 1000 nM.

As to `CS(=O)(=O)N1CC(Oc2ccc(S(=O)(=O)C(F)(F)F)c3c2CC(F)(F)[C@H]3O)C1` [Compound 793], the IC50 was greater than 1000 nM.

Take `O=S(=O)(c1ccc(CCO)c2c1C(O)C(F)(F)C2)C(F)(F)F` (centres unmarked) [Compound 520]: the IC50 was greater than 1000 nM.

Regarding `O=S(=O)(c1ccc(Oc2cc(F)cc(Cl)c2)c2c1COC2O)C(F)F` (centres unmarked) [Compound 88], the IC50 is greater than 1000 nM.

For the compound `O[C@H]1c2c(C(F)(F)F)ccc(OC3CC(F)(F)C3)c2CC1(F)F` [Compound 587], the IC50 was less than 50 nM.

For `O=C1CS(=O)(=O)c2ccc(Oc3cc(F)cc(F)c3)cc21` [Compound 417], the IC50 is greater than 1000 nM.

For `CCCOc1ccc(S(=O)(=O)C(F)(F)F)c2c1CCC2O` (centres unmarked) [Compound 583], the IC50 was greater than 1000 nM.

On to `O=C1CC[C@H](Oc2ccc(S(=O)(=O)C(F)(F)F)c3c2CC(F)(F)[C@H]3O)CN1` [Compound 719], for which the IC50 was greater than 1000 nM.

Take `CC1(C)C(O)c2c(ccc(Oc3cc(F)cc(Cl)c3)c2C#N)S1(=O)=O` (centres unmarked) [Compound 408]: the IC50 was greater than 1000 nM.

The IC50 is the concentration needed to halve the response being measured.
